From US10774082B2, “Quinazoline compound” (Astellas Pharma Inc., priority 2017, dated 2020)
Where two headings read alike, the source gives them in different places.

Columns and labels:
[1] = target: T1, KRAS G12C/SOS/c-Raf complex (Homo sapiens, UniProt P01116, G12C); assay: KRAS G12C/SOS/c-Raf complex formation inhibitory action (TR-FRET); type: biochemical; details: one hour at room temperature, read-out: IC50 (KRAS G12C/SOS/c-Raf complex formation inhibition)
T1 construct: Biotinylated AviTag-KRAS G12C (amino acid region 1-185, GDP)
Description: Evaluation of KRAS G12C/SOS/c-Raf Complex Formation Inhibitory Action
Human Recombinant KRAS G12C, SOS, and c-Raf protein were used, and with respect to the complex formation of these proteins, an inhibitory action of the test compound was examined through a time-resolved fluorescence resonance energy transfer (TR-FRET) method.
Biotinylated AviTag-KRAS G12C (amino acid region 1-185, GDP) (2.5 μL; 400 nM) dissolved in assay buffer (50 mM HEPES, 150 mM NaCl, 5 mM MgCl2, 0.05% Tween 20, pH 7.4) and test compound were added in a volume of 2.5 μL from 4,000 nM to 4 nM were added to 384 well plate (Corning Inc). Son of Sevenless (SOS) (amino acid region 564-1049, 2.5 μL; 1.3 μM) and c-Raf (amino acid region 51-131) GST containing GTP (Sigma-Aldrich Co. LLC) (2.5 μL; 130 nM and 4 μM of each) were added to the above mixture, and the resultant was left to stand for one hour at room temperature. Thereafter, a mixed solution (10 μL) of LANCE Ulight-anti-GST (120 nM, PerkinElmer. Co., Ltd) and LANCE Eu-W1024 labeled Streptoavidin (100 ng/mL, PerkinElmer. Co., Ltd) was added, and a fluorescence intensity on the condition of wavelength of 620 nm and 665 nm was measured by using EnVision 2103 Multilabel Reader (PerkinElmer Co., Ltd.) under the condition of excitation wavelength of 337 nm. […] In Tables, Ex represents Example numbers described later. In addition, in Tables, Compound C represents a test compound of Example I-59 disclosed in Pamphlet of International Publication No. WO 2016/164675, and the structures of Reference Example 1 and Reference Example 2 are indicated in Table 168 described below (the same shall apply hereinafter).

[2] = system: ERK phosphorylation (Thr 202/Tyr 204) in NCI-H1373 cells; assay: ERK phosphorylation inhibitory action in NCI-H1373 (Cell ELISA); type: cell-based, Human; details: Homo sapiens, NCI-H1373, 2 h, read-out: IC50 (ERK phosphorylation inhibition)
Description: Evaluation of ERK Phosphorylation Inhibitory Action with Respect to Human KRAS G12C Mutation Positive Non-Small Cell Lung Cancer Strain NCI-H1373
The ERK phosphorylation inhibitory action by the test compound was evaluated by measuring phosphorylation of 202th threonine (Thr 202) and 204th tyrosine (Tyr 204) of ERK on the downstream of the KRAS signal by Cell ELISA.
NCI-H1373 cells (ATCC, CRL-5866) were seeded in 384 well plates (Greiner bio-one) at 36 μL/well each so as to be 2×10^4 cell per well. Cell culture was performed under the conditions of temperature of 37° C. in the presence of 5% CO2 by using RPMI 1640 medium (Sigma-Aldrich Co. LLC) containing 10% fetal bovine serum (GE Life Sciences).
The next day, the test compounds (six points in a range of final concentration 1,000 nM to 0.3 nM), final concentration 1 μM of Trametinib (GlaxoSmithKline Inc.; MEK inhibitor) as a positive control, and DMSO which is a solvent of the test compound as a negative control were diluted 100-fold with fresh medium, 4 μL each was added to each well, and then cultured for 2 hours. Immediately after culturing, 30 μL of 30% glyoxal solution (Wako: 40% glyoxal diluted with Phosphate Buffered Saline (PBS; Wako)) was added to each well, and the cells were left to stand at room temperature for one hour to be fixed. Thereafter, the supernatant was removed by centrifuging the plate (110×g for 7 seconds, unless otherwise stated below under the same conditions), and 20 μL of PBS containing 0.1% Triton X-100 (Amersham Biosciences Corp.) was added to each well. After being left to stand at room temperature for 10 minutes, the supernatant was removed by centrifugation, and the same operation was repeated. Next, 20 μL of PBS containing 0.5% SDS (Invitrogen) was added to each well, and the mixture was left to stand at room temperature for 30 minutes, and then centrifuged to remove the supernatant. Subsequently, 20 μL of a blocking solution (ODYSSEY Blocking Buffer; LI-COR Biosciences) was added to each well, and left to stand at room temperature for one hour. The supernatant was removed by centrifugation, and 10 μL of a blocking solution prepared by diluting ERK (Thr 202/Tyr 204) of a phosphorylation antibody (Cell Signaling Technology, Inc.) as a primary antibody to be ½, 500 amount with respect to a stock solution was added to each well and was left to stand at 4° C. for overnight.
The next day, a reaction liquid is removed by centrifuging the plate, 20 μL of 0.05% Tween-20-containing PBS (Thermo Scientific; 20×PBS Tween-20 diluted 20-fold with ion exchanged water) was added to each well, and each well was washed by removing the supernatant by centrifugation. Washing was performed three times in total. After washing, 10 μL of a blocking solution prepared by diluting IRDye 800CW Goat anti-Rabbit IgG (LI-COR Biosciences) as a secondary antibody to be 1/1,000 amount with respect to a stock solution was added to each well and was left to stand at room temperature for one hour. The reaction liquid was removed by centrifuging the plate, and each well was washed three times with 0.05% Tween-20-containing PBS in the same manner as after primary antibody reaction. The centrifugation after the third wash was 171×g for 17 seconds. After removal of the cleaning solution, the plate was left to air dry at room temperature for three hours or more and the fluorescent signal at 800 nm was measured by Aerius (LI-COR Biosciences).
When a signal value at the time of adding DMSO was set as 0% inhibition, and a signal value at the time of adding 1 μM of Trametinib was set as 100% inhibition, a value of 50% inhibition (IC50) was calculated through Sigmoid-Emax model nonlinear regression analysis.

NCI-H1373 cells = assay: Anchorage-independent cell proliferation inhibitory action, NCI-H1373 spheroid three-dimensional culture; type: cell-based, Human; details: Homo sapiens, NCI-H1373, 144 h, read-out: IC50 (anchorage-independent cell proliferation inhibition)
Description: Evaluation of Anchorage-Independent Cell Proliferation Inhibitory Action with Respect to Human KRAS G12C Mutation Positive Non-Small Cell Lung Cancer Strain NCI-H1373
An anchorage-independent cell proliferation inhibitory action by the test compound was evaluated by a spheroid three-dimensional culture.
NCI-H1373 cells were seeded in cell low adsorption U bottom 384 well plates (Prime Surface: Sumitomo Bakelite Co., Ltd.) at 36 μL/well each so as to be 5×10^2 cell per well. The cell culture was performed under the same conditions as Test example 2.
The next day, the test compounds (six points in a range of final concentration 1,000 nM to 0.3 nM) and DMSO which is a solvent of the test compound as a negative control were diluted 100-fold with fresh medium, 4 μL each was added to each well. After culturing at 37° C. in the presence of 5% CO2 for six days, 20 μL of CellTiter Glo or to CellTiter Glo 2.0 (Promega Corporation) was added to each well. After stirring for one hour at room temperature using a plate mixer (FINEPCR), an emission signal was measured with ARVO X3 (PerkinElmer Co., Ltd.).
When a signal value in a DMSO treatment was set as 0% inhibition, and a signal value in cell-free medium only was set as 100% inhibition, a value of 50% inhibition (IC50) was calculated through Sigmoid-Emax model nonlinear regression analysis.

[3] = NCI-H1373 cells, cultured for 2 hours, 100% = 1 μM Trametinib
[4] = NCI-H1373 spheroid, six days, CellTiter Glo

T1 sequence (P01116 1-185 isoform P01116-2 G12C, one chain of several): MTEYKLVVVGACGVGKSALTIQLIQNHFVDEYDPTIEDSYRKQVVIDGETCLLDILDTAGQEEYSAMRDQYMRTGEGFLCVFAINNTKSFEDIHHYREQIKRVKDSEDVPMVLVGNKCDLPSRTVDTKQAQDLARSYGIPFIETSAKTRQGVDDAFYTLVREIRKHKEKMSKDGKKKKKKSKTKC

Structure (SMILES) | IC50 [1] [nM] | IC50 [2, 3] [nM] | IC50 (NCI-H1373 cells; [4]) [nM] | IC50 [2] [nM] | IC50 (NCI-H1373 cells) [nM]
C=CC(=O)N1CC2(CCN(c3nc(N4CCN(CCOC)CC4)nc4c(OCC(F)(F)F)c(-c5c(C)ccc6[nH]ncc56)c(C=C)cc34)CC2)C1 [Example 59] | 63 | 8.4 | 26 |  | 
C=CC(=O)N1CC2(CCN(c3nc(OC4CCN(C(=O)OC)CC4)nc4c(OCC(F)(F)F)c(-c5c(C)ccc6[nH]ncc56)c(C=C)cc34)CC2)C1 [Example 88] | 148 | 19 | 90 |  | 
C=CC(=O)N1CC2(CCN(c3nc(OC4CCN(CCOC)CC4)nc4c(OCC(F)(F)F)c(-c5c(C)ccc6cn[nH]c56)c(C=C)cc34)CC2)C1 [Example 62] | 37 | 8.8 | 14 |  | 
C=CC(=O)N1CC2(CCN(c3nc(OC4CCN(CCOC)CC4)nc4c(OCC(F)(F)F)c(-c5c(C)cc(F)c6[nH]ncc56)c(C=C)cc34)CC2)C1 [Example 78] | 47 | 16 | 24 |  | 
C=CC(=O)N1CC2(CCN(c3nc(OC4CCN(C(=O)N(C)C)CC4)nc4c(OCC(F)(F)F)c(-c5c(C)ccc6[nH]ncc56)c(C=C)cc34)CC2)C1 [Example 70] | 79 | 18 | 71 |  | 
C=CC(=O)N1CC2(CCN(c3nc(OC4CCN(C)CC4)nc4c(OCc5cccc(OC)c5)c(-c5c(C)ccc6[nH]ncc56)c(C=C)cc34)CC2)C1 [Example 57] | 52 | 8.2 | 39 |  | 
C=CC(=O)N1CC2(CCN(c3nc(OC4CCN(CC)CC4)nc4c(OCC)c(-c5c(C)c(F)cc6[nH]ncc56)c(C=C)cc34)CC2)C1 [Example 8] | 32 | 2.6 | 3.5 |  | 
C=CC(=O)N1CC2(CCN(c3nc(N4CCN(C)C(CC)C4)nc4c(OCC(F)(F)F)c(-c5c(C)ccc6[nH]ncc56)c(C=C)cc34)CC2)C1 (centres unmarked) [Example 89] | 53 | 19 | 40 |  | 
C=CC(=O)N1CC2(CCN(c3nc(OC4CCN(CCCOC)CC4)nc4c(OCC(F)(F)F)c(-c5c(C)ccc6[nH]ncc56)c(C=C)cc34)CC2)C1 [Example 27] | 40 | 3.3 | 6.5 |  | 
C=CC(=O)N1CC2(CCN(c3nc(OC4CCN(CC)CC4)nc4c(OC5CCC5)c(-c5c(C)ccc6[nH]ncc56)c(C5CC5)cc34)CC2)C1 [Example 19] | 48 | 4.5 | 15 |  | 
C=CC(=O)N1CC2(CCN(c3nc(OC4CCN(C)CC4)nc4c(OCC(F)F)c(-c5c(C)ccc6[nH]ncc56)c(C=C)cc34)CC2)C1 [Ex 1] | 34 | 6.4 | 12 |  | 
C=CC(=O)N1CC2(CCN(c3nc(OC4CCN(CC5CC5)CC4)nc4c(OCC(F)(F)F)c(-c5c(C)ccc6[nH]ncc56)c(C=C)cc34)CC2)C1 [Example 46] | 48 | 5.5 | 8.1 |  | 
C=CC(=O)N1CC2(CCN(c3nc(OC4CCN(C(C)=O)CC4)nc4c(OCC(F)(F)F)c(-c5c(C)ccc6[nH]ncc56)c(C=C)cc34)CC2)C1 [Example 90] | 55 | 22 | 53 |  | 
C=CC(=O)N1CC2(CCN(c3nc(OC4CCN(CCOC)CC4)nc4c(OCC(F)(F)F)c(-c5c(C=C)ccc6[nH]ncc56)c(C=C)cc34)CC2)C1 [Example 49] | 41 | 2.9 | 4.6 |  | 
C=CC(=O)N1CC2(CCN(c3nc(O[C@H]4CC[C@@H](N(C)C)CC4)nc4c(OCC(F)(F)F)c(-c5c(C)ccc6[nH]ncc56)c(C=C)cc34)CC2)C1 [Example 64] | 32 | 9.1 | 15 |  | 
C=CC(=O)N1CC2(CCN(c3nc(OC[C@@H]4CCCN4C)nc4c(OCC(F)F)c(-c5c(C)ccc6[nH]ncc56)c(C=C)cc34)CC2)C1 [Example 14] | 50 |  |  | 6.1 | 8.8
C=CC(=O)N1CC2(CCN(c3nc(CC4CCN(CCOC)CC4)nc4c(OCC(F)(F)F)c(-c5c(C)ccc6[nH]ncc56)c(C=C)cc34)CC2)C1 [Example 91] | 42 | 22 | 39 |  | 
C=CC(=O)N1CC2(CCN(c3nc(OC4CCN(CC)CC4)nc4c(OC)c(-c5c(Cl)ccc6[nH]ncc56)c(C=C)cc34)CC2)C1 [Reference example 1, reference compound] | 37 | 22 | 32 |  | 
C=CC(=O)N1CC2(CCN(c3nc(OC4CCN(C)CC4C)nc4c(OCC(F)(F)F)c(-c5c(C)ccc6[nH]ncc56)c(C=C)cc34)CC2)C1 (centres unmarked) [Example 48] | 54 | 5.9 | 15 |  | 
C=CC(=O)N1CC2(CCN(c3nc(OC4CCN(CCCOC)CC4)nc4c(OCC(F)(F)F)c(-c5c(C)ccc6[nH]ncc56)c(C5CC5)cc34)CC2)C1 [Ex 38] | 15 |  |  |  | 
C=CC(=O)N1CC2(CCN(c3nc(OC4CCN(CCOC)CC4)nc4c(OCC(F)(F)F)c(-c5c(C)ccc6[nH]ncc56)c(C=C)cc34)CC2)C1 [Ex 36] | 21 |  |  |  | 
